{"source": "patent US9238131B2", "about": "“Ocular iontophoresis device” (priority 2005, dated 2016)", "details": "rabbit, 40 mg/ml in water with no buffer, 2 mA-4 min", "description": "The assignee made some comparative tests on rabbits done with a first iontophoresis device having cylindrical outer and inner walls (as known in the prior art) and a second iontophoresis device as shown in FIG. 7 (i.e. the inner wall 26 and outer wall 24 being tapered with the same inclination angle).\nThe two devices were designed for having the same: • application surface 2; • distance between the active electrode 10 and the application surface 2.\nThe area of the active electrode 30 of the second device was about three times more important than those of the first device.\nFor each comparative test, iontophoresis conditions were the same (2 mA-4 min).\nAfter iontophoresis, rabbit ocular tissues were sampled. Tissues sampled included choroids and retina.\nConcentrations of active substances 30 in these ocular tissues were then measured."}
{"smiles": "C[C@@H]1C[C@H]2[C@@H]3CCC4=CC(=O)C=C[C@]4(C)[C@@]3(F)[C@@H](O)C[C@]2(C)[C@@]1(O)C(=O)COP(=O)([O-])[O-].[Na+].[Na+]", "note": "[Dexamethasone Disodium Phosphate]", "values": [{"measurement": "Increase of tissue concentration, second device versus first device, choroids", "value": 3.7}, {"measurement": "Times more active substance in the tissues with second (tapered) device than with first (cylindrical) device", "setting": "choroids and retina", "value": "At least three"}]}
